# Results from patent US20260176270A1 (Exelixis, Inc., priority 2022, published 2026).
# Like-named read-outs stand apart in the source and are kept apart here.
# Columns and labels:
# PKMYT1 = biological target: T1, PKMYT1 (Homo sapiens, UniProt Q99640); assay: ADP-Glo PKMYT1 ATP-depletion assay; conditions: 50 nM PKMYT1, 13.3 nM CDK1, read-out: Biochemical IC50
# T1 construct: PKMYT1 (93 kD, full length, N-terminal GST tag from Signal Chem); GST (N); purchased Signal Chem
# T1 sequence (Q99640 1-499): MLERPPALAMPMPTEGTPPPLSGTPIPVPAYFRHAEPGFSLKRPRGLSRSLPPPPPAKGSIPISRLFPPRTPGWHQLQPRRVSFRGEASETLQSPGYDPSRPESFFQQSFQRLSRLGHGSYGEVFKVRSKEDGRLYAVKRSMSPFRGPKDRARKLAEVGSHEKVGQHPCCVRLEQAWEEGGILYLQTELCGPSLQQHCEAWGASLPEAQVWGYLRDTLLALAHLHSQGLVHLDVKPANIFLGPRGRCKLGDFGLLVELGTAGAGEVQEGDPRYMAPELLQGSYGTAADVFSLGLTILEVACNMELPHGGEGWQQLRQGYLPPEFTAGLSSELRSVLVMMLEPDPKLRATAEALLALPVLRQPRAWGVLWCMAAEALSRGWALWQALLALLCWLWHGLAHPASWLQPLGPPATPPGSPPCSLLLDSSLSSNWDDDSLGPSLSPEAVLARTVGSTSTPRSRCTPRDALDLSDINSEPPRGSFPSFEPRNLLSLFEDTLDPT
# Experimental: (§1) Biochemical IC50 values were determined via ADP-Glo™ assay. Cellular IC50 values were determined via AlphaLISA assay.
# ADP-Glo™ PKMYT1 ATP-depletion assay. The activity of PKMYT1 is measured using a luciferase-luciferin based ATP detection reaction to quantify ATP depletion resulting from kinase-catalyzed phosphoryl transfer to CDK1 or autophosphorylation of PKMYT1. The ADP generated as a byproduct of the reaction is converted to ATP and used to drive a luciferase reaction. Test compounds were dissolved in DMSO and dispensed into Corning 3824 384-well plates prior to the experiment such that the final DMSO concentration was <1%. To the compounds was added 3 μL of PKMYT1 (93 kD, full length, N-terminal GST tag from Signal Chem). The reaction was started by the addition of 2 μL of CDK1 (58 kDa, full length, N-terminal GST tag from Signal Chem) and ATP in assay buffer (50 mM Hepes, 40 mM NaCl, 10 mM MgCl2, 1 mM DTT, 0.1 mg/mL BSA, 2.5 mM MnCl2). Final assay concentrations were 50 nM PKMYT1, 13.3 nM CDK1, and 88 µM ATP. Plates were centrifuged for 1 minute at 1000 RPM and incubated at RT for 120 minutes. After the incubation period, ADP-Glo™ reagent was added and the plates were incubated for another 40 minutes before finally adding the kinase detection reagent. 30 minutes after the addition, plates were placed on a PHERAstar® plate reader and read using the Luminescence Protocol, integration time at 0.5 seconds.
# [1] = tested on: phosphorylation of CDK1 at Thr14 in HCC1806 cells; assay: Cell lysate AlphaLISA assay measuring inhibition of phosphorylation of CDK1 Thr14; format: cell-based; conditions: read-out: Cellular IC50
# Experimental: as §1
# Cell lysate AlphaLISA® assay measuring inhibition of phosphorylation of CDK1 Thr14. Inhibition of phosphorylation of CDK1 at Thr14 was determined using AlphaLISA® SureFire® Ultra™ Kit from Perkin Elmer (ALSU-PCDK1-A10K). HCC1806 cells were seeded at 2K cells per well (50 μl/well) in 384-well plates (Corning 3570) and stored overnight at 37° C. and 5% CO2. The following day, the compounds dissolved in DMSO were introduced to the cells and incubated for 4 hours at 37° C. and 5% CO2. The cells were then washed with PBS using Blue®Washer and 10 μl of lysis buffer containing protease inhibitor was added. The plate was placed on an orbital shaker (at 4° C.) for 30 minutes and stored overnight at −80° C. for complete lysing. The next day, the plates were thawed at room temperature for at least 30 min. Reagents were prepared in a dimmed light setting (<100 lumens). The assay was run by first adding 5 μl of the acceptor mix (reaction buffer 1: reaction buffer 2: activation buffer: acceptor beads 47:47:4:2), covering the plate with foil, shaking for 2 minutes and incubating at RT for 60 minutes. The donor mix (dilution buffer: donor beads 47:3) was then added at 5 μl per well, placed on the shaker for 2 minutes and incubated at RT for 60 minutes before reading the plates on a PHERAstar® plate reader. The results were normalized to DMSO (0% Inhibition) and 3 μM of reference compound.
Structure (SMILES),IC50 (PKMYT1) [nM],IC50 ([1]; 4 hours) [nM],"IC50 ([1]; Homo sapiens, HCC1806, 4 h) [nM]"
"Cc1ccc(O)cc1-c1c(N)c(C(N)=O)cc2nccnc12 (atropisomer, axis not shown; (P)) [Compound 117, (P)-7-amino-8-(5-hydroxy-2-methylphenyl)quinoxaline-6-carboxamide]",1000 to 5000,≥ 5000,
"COc1cccc(-c2c(N)c(C(N)=O)nc3cccnc23)c1C [Compound 1, 3-Amino-4-(3-methoxy-2-methylphenyl)-1,5-naphthyridine-2-carboxamide]",≥ 5000,,≥ 5000
NC(=O)c1cc2nccnc2c(-c2cccc3sncc23)c1N [Compound 214],500 to 1000,,≥ 5000
"Cc1ccc(O)c(C)c1-c1c(N)c(C(N)=O)nc2ccc(C(F)(F)F)cc12 (single isomer, unassigned) [Compound 40, (M)-3-Amino-4-(3-hydroxy-2,6-dimethylphenyl)-6-(trifluoromethyl)quinoline-2-carboxamide]",500 to 1000,1000 to 5000,
"Cc1c(O)cccc1-c1c(N)c(C(N)=O)nc2cccc(C#N)c12 (atropisomer, axis not shown) [Compound 242]",< 50,< 50,
"COc1ccc2nc(C(N)=O)c(N)c(-c3cccc(O)c3C)c2n1 (atropisomer, axis not shown) [Compound 175]",≥ 5000,≥ 5000,
Cc1c(F)cncc1-c1c(N)c(C(N)=O)nc2cccnc12 [Compound 208],50 to 500,,500 to 1000
"COc1ccc2nc(C(N)=O)c(N)c(-c3cccc(O)c3C)c2n1 (atropisomer, axis not shown) [Compound 174]",< 50,50 to 500,
"Cc1ccc2[nH]ncc2c1-c1cc(C(N)=O)nc2ccccc12 [Compound 15, 4-(5-Methyl-1H-indazol-4-yl)quinoline-2-carboxamide]",≥ 5000,,≥ 5000
"Cc1n[nH]c2cccc(-c3cc(C(N)=O)cc4nccnc34)c12 [Compound 72, 8-(3-Methyl-1H-indazol-4-yl)quinoxaline-6-carboxamide]",≥ 5000,,≥ 5000
"COc1nc2cc(C(N)=O)c(N)c(-c3cccc(O)c3C)c2nc1C (atropisomer, axis not shown) [Compound 187]",< 50,50 to 500,
NC(=O)c1nc2cccnc2c(-c2ccc(F)c3[nH]ncc23)c1N [Compound 190],50 to 500,,1000 to 5000
"NC(=O)c1cc(-c2cccc3[nH]ncc23)c2ccccc2n1 [Compound 14, 4-(1H-Indazol-4-yl)quinoline-2-carboxamide]",≥ 5000,,≥ 5000
"NC(=O)c1nc2cccnc2c(-c2cccc3[nH]nc(F)c23)c1N (atropisomer, axis not shown) [Compound 304]",≥ 5000,≥ 5000,
"Cc1ccc2[nH]ncc2c1-c1c(N)c(C(N)=O)nc2ccccc12 [Compound 17, 3-Amino-4-(5-methyl-1H-indazol-4-yl)quinoline-2-carboxamide]",500 to 1000,,≥ 5000
COc1cc(-c2c(N)c(C(N)=O)nc3cccnc23)cnc1C [Compound 238],1000 to 5000,,≥ 5000
"Cc1ccc(O)c(C)c1-c1c(N)c(C(N)=O)nc2cc(Cl)ccc12 [Compound 42, 3-Amino-7-chloro-4-(3-hydroxy-2,6-dimethylphenyl)quinoline-2-carboxamide]",500 to 1000,,1000 to 5000
"Cc1c(O)cc(Cl)cc1-c1c(N)c(C(N)=O)nc2cccnc12 (atropisomer, axis not shown) [Compound 290]",50 to 500,50 to 500,
"Cc1c(-c2c(N)c(C(N)=O)cc3nccnc23)ccc(F)c1O (atropisomer, axis not shown) [Compound 295]",< 50,50 to 500,

# Other lines, results leading:
IC50 (PKMYT1) [nM],IC50 ([1]; 4 hours) [nM],"IC50 ([1]; Homo sapiens, HCC1806, 4 h) [nM]",Structure (SMILES)
1000 to 5000,≥ 5000,,"Cc1ccc(O)c(C)c1-c1c(N)c(C(N)=O)nc2ccccc12 (atropisomer, axis not shown; (P)) [Compound 45, (P)-3-amino-4-(3-hydroxy-2,6-dimethylphenyl)quinoline-2-carboxamide]"
50 to 500,,1000 to 5000,Cc1ccc(O)c(C)c1-c1c(N)c(C(N)=O)cc2nc(N3CCC4(COC4)C3)cnc12 [Compound 339]
500 to 1000,≥ 5000,,"Cc1ccc(O)c(C)c1-c1c(N)c(C(N)=O)cc2cccnc12 (single isomer, unassigned) [Compound 65, (M)-7-Amino-8-(3-hydroxy-2,6-dimethyl-phenyl)quinoline-6-carboxamide]"
≥ 5000,≥ 5000,,"Cc1ccc(-c2c(N)c(C(N)=O)nc3cccnc23)c(C)c1O (atropisomer, axis not shown) [Compound 287]"
1000 to 5000,≥ 5000,,"Cc1c(O)cccc1-c1c(N)c(C(N)=O)nc2cc(C(F)(F)F)cnc12 (atropisomer, axis not shown) [Compound 167]"
≥ 5000,≥ 5000,,"COc1cncc(-c2c(N)c(C(N)=O)nc3cccnc23)c1C (atropisomer, axis not shown) [Compound 185]"
1000 to 5000,,≥ 5000,Cc1c(O)cccc1-c1ccnc2nc(C(N)=O)c(N)cc12 [Compound 233]
50 to 500,,1000 to 5000,Cc1c(O)cccc1-c1c(N)c(C(N)=O)cc2ccncc12 [Compound 335]
1000 to 5000,≥ 5000,,"Cc1ccc(O)c(C)c1-c1c(N)c(C(N)=O)cc2nc(C(F)(F)F)cnc12 (single isomer, unassigned) [Compound 111, (M)-7-Amino-8-(3-hydroxy-2,6-dimethylphenyl)-3-(trifluoromethyl)quinoxaline-6-carboxamide]"
≥ 5000,≥ 5000,,"NC(=O)c1nc2cccnc2c(-c2c(F)ccc3[nH]ncc23)c1N (atropisomer, axis not shown) [Compound 245]"
50 to 500,,1000 to 5000,NC(=O)c1nc2cccnc2c(-c2cncc3sccc23)c1N [Compound 230]
< 50,,50 to 500,NC(=O)c1nc2cccnc2c(-c2cncc(Cl)c2Cl)c1N [Compound 258]
500 to 1000,,≥ 5000,"Cc1ccc(O)c(C)c1-c1cc(C(N)=O)cc2nccnc12 [Compound 74, 8-(3-Hydroxy-2,6-dimethyl-phenyl)quinoxaline-6-carboxamide]"
≥ 5000,,≥ 5000,NC(=O)c1cc2nccnc2c(-c2ccc3ncoc3c2)c1N [Compound 198]
1000 to 5000,≥ 5000,,"Cc1c(O)cc(Cl)cc1-c1c(N)c(C(N)=O)nc2cccnc12 (atropisomer, axis not shown) [Compound 289]"
50 to 500,500 to 1000,,COc1cncc(-c2c(N)c(C(N)=O)nc3cccnc23)c1C [Compound 153]
50 to 500,,≥ 5000,Cc1c(O)cc(O)cc1-c1c(N)c(C(N)=O)cc2nccnc12 [Compound 331]
50 to 500,,< 50,COc1ccnc2cc(C(N)=O)c(N)c(-c3cccc(O)c3C)c12 [Compound 333]
50 to 500,1000 to 5000,,"Cc1ccc(O)cc1-c1c(N)c(C(N)=O)cc2nccnc12 [Compound 123, 7-Amino-8-(5-hydroxy-2-methylphenyl)quinoxaline-6-carboxamide]"
